{"source": "patent US20250263671A1", "about": "“NEURON-INNERVATED ASSEMBLOIDS AND METHODS OF MAKING THE SAME” (University of Georgia Research Foundation, Inc., priority 2024, published 2025)", "key": {"[1]": {"test_system": "hypoxic hSCAs", "experiment": "low oxygen (hypoxia-induced) cardiac infarction model on wk5 hSCAs", "format": "cell-based, human", "method": "(§1) 0.5×10^6 cells were collected using Trizol (Invitrogen, 15596026) for each sample. Reverse transcription with 1 μg total RNA was performed using iScript™ Reverse Transcription Supermix (Bio-Rad, 170884). SYBR green (Bio-Rad) RT-qPCR was ran using CFX96 Touch Deep Well Real-Time PCR Detection System (Bio-Rad), and analyzed by CFX Maestro.\nWk5 hSCAs were fed with hSCA medium and placed into the hypoxia chamber (incubator subchamber system with O2/CO2 setpoint control, BioSpherix) with 10% O2, control group was maintained in regular culture condition (21% O2). hSCAs in both conditions were fed with fresh hSCA medium every 3 days for 10 days.\nTo test the effect of sympathetic input to cardiac function in the assembloids in a diseased state, a strategy was developed to model myocardial infarction. A model of myocardial infarction in cardiac organoids has been described^55. In this model, a moderate hypoxic environment (10% O2) was applied, which prevented massive and sudden cell death in 3D cardiac microtissues and allowed the observation of the progression of infarction. In addition to hypoxia, exogenous NE was added to the cardiac organoids to mimic the effects of increased sympathetic tone to the heart. […] The hypoxic stress stimulated overproduction of endogenous NE from symNs in hSCAs, measured via the NS510 probe and ELISA (FIG. 5C). […]"}, "[2]": {"test_system": "hPSC-derived CMs", "settings": "CMs alone, without physical connection with symNs; cited from earlier work"}, "[3]": {"test_system": "neonatal mouse hearts", "settings": "symN lesions in neonatal mouse hearts; cited from earlier work"}, "[4]": {"test_system": "hSCAs", "experiment": "labetalol treatment during hSCA development: assembloid size and cell count", "format": "cell-based, human", "method": "(§2) The effect of SymN activation on heart development has been reported, potentially through NE and adrenergic signaling^22,23. […] To test if the symNs in hSCAs play a regulatory role on cardiac development and maturation, the assembloids were treated with α- and β-adrenergic receptor antagonist labetalol (LAB, 1 μM) to fully block the NE signaling during the growth of the hSCAs (FIG. 4B). The drug was given from wk3, the stage when the assembloid growth almost reaches its plateau (FIG. 1E). Given that symN activity may promote cellular hyperplastic to hypertrophic transition of CM^22,23, the overall size of hSCAs was compared on wk5 after LAB treatment."}, "[5]": {"test_system": "hSCAs", "experiment": "RT-qPCR of wk5 hSCAs for cardiac maturity markers after labetalol treatment", "format": "cell-based, human", "settings": "LAB 1 μM given from wk3, wk5 hSCAs, vs DMSO", "method": "as §1, §2"}, "[6]": {"test_system": "symNs within the hSCAs", "settings": "nicotine 1 μM, wk5 hSCAs", "experimental": "To assess symN activity, calcium (Ca^2+) imaging was performed using Fluo-4 Ca^2+ labeling. To be able to distinguish Ca^2+ fluxes in symNs and not in cardiac tissues, symNblast were differentiated using the EF1-RFP reporter hPSC line and mixed with unlabeled cardiac progenitors (FIG. 3F)."}, "[7]": {"test_system": "hPSC-derived symNs", "settings": "nicotine treatment; cited from earlier work"}}, "note": "“Also recorded” adds a separate entry of the source."}
{"smiles": "CC(C)NCC(O)COc1cccc2ccccc12", "note": "(stereo not drawn) [propranolol]", "values": [{"measurement": "impaired expression of Ca2+ handling genes, RT-qPCR", "setting": "[1]; propranolol 1 μM in addition to low oxygen (10% O2, 10 days)", "result": "rescued"}, {"measurement": "cardiac fibrosis caused by hypoxic stress", "setting": "[1]; propranolol along with the hypoxic stress", "result": "rescued"}]}
{"smiles": "CC(C)NCC(O)c1ccc(O)c(O)c1", "note": "(stereo not drawn) [isoproterenol]", "values": [{"measurement": "improvement of CM maturity (mature cardiac gene expression, functional cardiac activity)", "setting": "[2]", "result": "not sufficient to induce such maturity improvement"}]}
{"smiles": "NCCc1cc(O)c(O)cc1O", "note": "[6-OHDA, 6-hydroxydopamine]", "values": [{"measurement": "proliferation of CMs", "setting": "[3]", "result": "increased"}]}
{"smiles": "CC(CCc1ccccc1)NCC(O)c1ccc(O)c(C(N)=O)c1", "note": "(stereo not drawn) [LAB, labetalol]", "values": [{"measurement": "overall size of hSCAs", "setting": "[4]; LAB 1 μM given from wk3, compared on wk5, vs DMSO", "result": "Differences in assembloid size were not observed; also recorded: not altered"}, {"measurement": "hSCA cell number", "setting": "[4]; LAB-treated organoids compared to control, wk5", "result": "not altered"}, {"measurement": "expression of markers of CM maturity (CX43, α-ACTININ, and CD36), RT-qPCR", "setting": "[5]", "result": "decreased expressions"}]}
{"smiles": "CN1CCCC1c1cccnc1", "note": "(stereo not drawn) [nicotine]", "values": [{"measurement": "hSCA beating efficiency", "setting": "[6]", "result": "increased hSCA beating efficiency"}, {"measurement": "spontaneous firing of action potentials", "setting": "[7]", "result": "upregulated"}]}
